Source: US11180462B2, “Microbiocidal oxadiazole derivatives” (SYNGENTA PARTICIPATIONS AG, priority 2015, dated 2021)

Columns and labels:
[1] = tested on: Puccinia recondita f. Sp. Tritici; test: Fungicidal activity against Puccinia recondita f. sp. tritici / wheat / leaf disc preventative (brown rust); format: in vivo; settings: foliar, 200 ppm in the applied formulation, wheat leaf segments, preventative, compared to untreated control leaf disks, read-out: disease control
Method in brief: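 200 ppm spray on wheat cv. Kanzler leaf segments; spore inoculation +1 day; 19° C., 75% rh, 12 h/12 h light cycle; single rating of % control vs untreated at 7 to 9 days.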

[2] = tested on: Puccinia recondita f. Sp. Tritici; test: Fungicidal activity against Puccinia recondita f. sp. tritici / wheat / leaf disc curative (brown rust); format: in vivo; settings: foliar, 24 h, 200 ppm in the applied formulation, wheat leaf segments, curative (applied 1 day after inoculation), compared to untreated control leaf disks, read-out: disease control
Method in brief: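 % disease control vs untreated, scored 6–8 d post-application. Wheat cv. Kanzler segments, spore-inoculated, dark 19° C/75% RH; formulated cpd applied 1 d post-inoc; then 19° C, 75% RH, 12 h L/12 h D.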

Phakopsora Pachyrhizi = test: Fungicidal activity against Phakopsora pachyrhizi / soybean / leaf disc preventative (Asian soybean rust); format: in vivo; settings: foliar, 200 ppm in the applied formulation, soybean leaf disks, compared to untreated control leaf disks, read-out: disease control
Method in brief: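 Scored 12 to 14 days post-application as percent control relative to untreated check discs, rust spores were sprayed under the disc one day after compound treatment. Incubation: 20°C, 75% rh, first 24–36 h in darkness, then 12 h daily light; discs kept on water agar.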

[3] = tested on: Glomerella lagenarium (Colletotrichum lagenarium); test: Fungicidal activity against Glomerella lagenarium (Colletotrichum lagenarium) liquid culture / cucumber / preventative (anthracnose); format: cell-based; settings: Colletotrichum orbiculare; 20 ppm in the applied formulation; liquid culture (PDB), growth inhibition measured photometrically after 3 to 4 days; compared to untreated control; read-out: disease control
Method in brief: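 Percent activity against the untreated check was derived from photometric growth measurements made 2 to 7 days after conidia in potato dextrose broth were combined with compound at 20 ppm. Cultures were kept dark at 24 °C and 96% humidity.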

CCC(=O)N(Cc1ccc(-c2noc(C(F)(F)F)n2)cc1)CC1CC1 [Compound 1.227, N-(cyclopropylmethyl)-N-[[4-[5-(trifluoromethyl)-1,2,4-oxadiazol-3-yl]phenyl]methyl]-propanamide]
≥ 80%: pest or weed control at 200 ppm [1] | pest or weed control at 200 ppm [2] | pest or weed control at 200 ppm (Phakopsora Pachyrhizi) | inhibition of growth at 20 ppm [3]

C=CCN(Cc1ccc(-c2noc(C(F)(F)F)n2)cc1)C(=O)C(C)C [Compound 1.483, N-allyl-2-methyl-N-[[4-[5-(trifluoromethyl)-1,2,4-oxadiazol-3-yl]phenyl]methyl]-propanamide]
≥ 80%: pest or weed control at 200 ppm [1] | pest or weed control at 200 ppm [2] | pest or weed control at 200 ppm (Phakopsora Pachyrhizi) | inhibition of growth at 20 ppm [3]

CCON(Cc1ccc(-c2noc(C(F)(F)F)n2)cc1)C(=O)C1CC1 [Compound 1.564, N-ethoxy-N-[[4-[5-(trifluoromethyl)-1,2,4-oxadiazol-3-yl]phenyl]methyl]-cyclopropane-carboxamide]
≥ 80%: pest or weed control at 200 ppm [1] | pest or weed control at 200 ppm [2] | pest or weed control at 200 ppm (Phakopsora Pachyrhizi) | inhibition of growth at 20 ppm [3]

CC(C)C(=O)N(CCO)Cc1ccc(-c2noc(C(F)(F)F)n2)cc1 [Compound 1.707, N-(2-hydroxyethyl)-2-methyl-N-[[4-[5-(trifluoromethyl)-1,2,4-oxadiazol-3-yl]phenyl]methyl]-propanamide]
≥ 80%: pest or weed control at 200 ppm [1] | pest or weed control at 200 ppm [2] | pest or weed control at 200 ppm (Phakopsora Pachyrhizi) | inhibition of growth at 20 ppm [3]

CCN(Cc1ccc(-c2noc(C(F)(F)F)n2)cc1)C(=O)C1CC1(F)F (stereo not shown) [Compound 1.504, N-ethyl-2,2-difluoro-N-[[4-[5-(trifluoromethyl)-1,2,4-oxadiazol-3-yl]phenyl]methyl]-cyclopropane-carboxamide]
≥ 80%: pest or weed control at 200 ppm [1] | pest or weed control at 200 ppm [2] | pest or weed control at 200 ppm (Phakopsora Pachyrhizi) | inhibition of growth at 20 ppm [3]

CC(C)C(=O)N(Cc1ccc(-c2noc(C(F)(F)F)n2)cc1)C1CC1 [Compound 1.87, N-cyclopropyl-2-methyl-N-[[4-[5-(trifluoromethyl)-1,2,4-oxadiazol-3-yl]phenyl]methyl]-propanamide]
≥ 80%: pest or weed control at 200 ppm [1] | pest or weed control at 200 ppm [2] | pest or weed control at 200 ppm (Phakopsora Pachyrhizi) | inhibition of growth at 20 ppm [3]

CON(Cc1ccc(-c2noc(C(F)(F)F)n2)cc1)C(=O)C1(C(F)(F)F)CCC1 [Compound 1.19, N-methoxy-1-(trifluoromethyl)-N-[[4-[5-(trifluoromethyl)-1,2,4-oxadiazol-3-yl]phenyl]methyl]-cyclobutane-carboxamide]
≥ 80%: pest or weed control at 200 ppm [1] | pest or weed control at 200 ppm [2] | pest or weed control at 200 ppm (Phakopsora Pachyrhizi) | inhibition of growth at 20 ppm [3]

CCC(COC)C(=O)N(Cc1ccc(-c2noc(C(F)(F)F)n2)cc1)OC (stereo not shown) [Compound 1.57, N-methoxy-2-(methoxymethyl)-N-[[4-[5-(trifluoromethyl)-1,2,4-oxadiazol-3-yl]phenyl]methyl]-butanamide]
≥ 80%: pest or weed control at 200 ppm [1] | pest or weed control at 200 ppm [2] | pest or weed control at 200 ppm (Phakopsora Pachyrhizi) | inhibition of growth at 20 ppm [3]

CON(Cc1ccc(-c2noc(C(F)(F)F)n2)cc1)C(=O)N(C)C1CC1 [Compound 3.58, 1-cyclopropyl-3-methoxy-1-methyl-3-[[4-[5-(trifluoromethyl)-1,2,4-oxadiazol-3-yl]phenyl]methyl]urea]
≥ 80%: pest or weed control at 200 ppm [1] | pest or weed control at 200 ppm [2] | pest or weed control at 200 ppm (Phakopsora Pachyrhizi) | inhibition of growth at 20 ppm [3]

COCC(=O)N(C)Cc1ccc(-c2noc(C(F)(F)F)n2)cc1 [Compound 1.519, 2-methoxy-N-methyl-N-[[4-[5-(trifluoromethyl)-1,2,4-oxadiazol-3-yl]phenyl]methyl]-acetamide]
≥ 80%: pest or weed control at 200 ppm [1] | pest or weed control at 200 ppm [2] | pest or weed control at 200 ppm (Phakopsora Pachyrhizi) | inhibition of growth at 20 ppm [3]

CCC(COC)C(=O)N(Cc1ccc(-c2noc(C(F)(F)F)n2)cc1)C(C)C (stereo not shown) [Compound 1.680, N-isopropyl-2-(methoxymethyl)-N-[[4-[5-(trifluoromethyl)-1,2,4-oxadiazol-3-yl]phenyl]methyl]-butanamide]
≥ 80%: pest or weed control at 200 ppm [1] | pest or weed control at 200 ppm [2] | pest or weed control at 200 ppm (Phakopsora Pachyrhizi) | inhibition of growth at 20 ppm [3]

N#CC1(C(=O)N(Cc2ccc(-c3noc(C(F)(F)F)n3)cc2)CC2CC2)CC1 [Compound 1.244, 1-cyano-N-(cyclopropylmethyl)-N-[[4-[5-(trifluoromethyl)-1,2,4-oxadiazol-3-yl]phenyl]methyl]-cyclopropane-carboxamide]
≥ 80%: pest or weed control at 200 ppm [1] | pest or weed control at 200 ppm [2] | pest or weed control at 200 ppm (Phakopsora Pachyrhizi) | inhibition of growth at 20 ppm [3]

C#CCN(Cc1ccc(-c2noc(C(F)(F)F)n2)cc1)C(=O)C1CCCC1 [Compound 1.168, N-prop-2-ynyl-N-[[4-[5-(trifluoromethyl)-1,2,4-oxadiazol-3-yl]phenyl]methyl]-cyclopentane-carboxamide]
≥ 80%: pest or weed control at 200 ppm [1] | pest or weed control at 200 ppm [2] | pest or weed control at 200 ppm (Phakopsora Pachyrhizi) | inhibition of growth at 20 ppm [3]

COCCN(Cc1ccc(-c2noc(C(F)(F)F)n2)cc1)C(=O)C1OCCO1 [Compound 1.360, N-(2-methoxyethyl)-N-[[4-[5-(trifluoromethyl)-1,2,4-oxadiazol-3-yl]phenyl]methyl]-1,3-dioxolane-2-carboxamide]
≥ 80%: pest or weed control at 200 ppm [1] | pest or weed control at 200 ppm [2] | pest or weed control at 200 ppm (Phakopsora Pachyrhizi) | inhibition of growth at 20 ppm [3]

CC1(C(=O)N(Cc2ccc(-c3noc(C(F)(F)F)n3)cc2)C2CC2)COC1 [Compound 1.128, N-cyclopropyl-3-methyl-N-[[4-[5-(trifluoromethyl)-1,2,4-oxadiazol-3-yl]phenyl]methyl]-oxetane-3-carboxamide]
≥ 80%: pest or weed control at 200 ppm [1] | pest or weed control at 200 ppm [2] | pest or weed control at 200 ppm (Phakopsora Pachyrhizi) | inhibition of growth at 20 ppm [3]

CC1(C(=O)N(Cc2ccc(-c3noc(C(F)(F)F)n3)cc2)CC2CC2)CC1 [Compound 1.226, N-(cyclopropylmethyl)-1-methyl-N-[[4-[5-(trifluoromethyl)-1,2,4-oxadiazol-3-yl]phenyl]methyl]-cyctopropane-carboxamide]
≥ 80%: pest or weed control at 200 ppm [1] | pest or weed control at 200 ppm [2] | pest or weed control at 200 ppm (Phakopsora Pachyrhizi) | inhibition of growth at 20 ppm [3]

CCC(=O)N(Cc1c(F)cc(-c2noc(C(F)(F)F)n2)cc1F)OC [Compound 1.594, N-[[2,6-difluoro-4-[5-(trifluoromethyl)-1,2,4-oxadiazol-3-yl]phenyl]methyl]-N-methoxy-propanamide]
≥ 80%: pest or weed control at 200 ppm [1] | pest or weed control at 200 ppm [2] | pest or weed control at 200 ppm (Phakopsora Pachyrhizi) | inhibition of growth at 20 ppm [3]

C=CCCC(=O)N(Cc1ccc(-c2noc(C(F)(F)F)n2)cc1)C1CC1 [Compound 1.91, N-cyclopropyl-N-[[4-[5-(trifluoromethyl)-1,2,4-oxadiazol-3-yl]phenyl]methyl]-pent-4-enamide]
≥ 80%: pest or weed control at 200 ppm [1] | pest or weed control at 200 ppm [2] | pest or weed control at 200 ppm (Phakopsora Pachyrhizi) | inhibition of growth at 20 ppm [3]

O=C(C1CCCO1)N(Cc1ccc(-c2noc(C(F)(F)F)n2)cc1)C1CC1 (stereo not shown) [Compound 1.145, N-cyclopropyl-N-[[4-[5-(trifluoromethyl)-1,2,4-oxadiazol-3-yl]phenyl]methyl]-tetrahydrofuran-2-carboxamide]
≥ 80%: pest or weed control at 200 ppm [1] | pest or weed control at 200 ppm [2] | pest or weed control at 200 ppm (Phakopsora Pachyrhizi) | inhibition of growth at 20 ppm [3]

CCC(C)N(Cc1ccc(-c2noc(C(F)(F)F)n2)cc1)C(=O)COC (stereo not shown) [Compound 1.372, 2-methoxy-N-sec-bulyl-N-[[4-[5-(trifluoromethyl)-1,2,4-oxadiazol-3-yl]phenyl]methyl]-acetamide]
≥ 80%: pest or weed control at 200 ppm [1] | pest or weed control at 200 ppm [2] | pest or weed control at 200 ppm (Phakopsora Pachyrhizi) | inhibition of growth at 20 ppm [3]

CCN(Cc1ccc(-c2noc(C(F)(F)F)n2)cc1)C(=O)C1CC1F (stereo not shown) [Compound 1.511, N-ethyl-2-fluoro-N-[[4-[5-(trifluoromethyl)-1,2,4-oxadiazol-3-yl]phenyl]methyl]-cyclopropane-carboxamide]
≥ 80%: pest or weed control at 200 ppm [1] | pest or weed control at 200 ppm [2] | pest or weed control at 200 ppm (Phakopsora Pachyrhizi) | inhibition of growth at 20 ppm [3]

O=C(C1CC1(F)F)N(Cc1ccc(-c2noc(C(F)(F)F)n2)cc1)C1CC1 (stereo not shown) [Compound 1.89, N-cyclopropyl-2,2-difluoro-N-[[4-[5-(trifluoromethyl)-1,2,4-oxadiazol-3-yl]phenyl]methyl]-cyclopropane-carboxamide]
≥ 80%: pest or weed control at 200 ppm [1] | pest or weed control at 200 ppm [2] | pest or weed control at 200 ppm (Phakopsora Pachyrhizi) | inhibition of growth at 20 ppm [3]
